Measurements: ChEMBL document CHEMBL1131172 (J Med Chem, 1998)

Key:
NCI-H23 [1] = test: inhibition of the growth of non-small-cell lung cancer (NCI-H23) cell line; assay type: functional; conditions: Homo sapiens
786-0 = test: inhibition of the growth of renal cancer(786-0) cell line; assay type: functional; conditions: Homo sapiens
HCT-15 [2] = test: inhibition of the growth of colon cancer(HCT-15) cell line; assay type: functional; conditions: Homo sapiens
IGROV-1 [3] = test: Inhibition of the growth of ovarian cancer(IGROVI) cell line at 0.01 uM; assay type: functional; conditions: Homo sapiens
NCI-H23 [4] = test: Inhibition of the growth of non-small-cell lung cancer (NCI-H23) cell line at 0.01 uM; assay type: functional; conditions: Homo sapiens
KM12 = test: inhibition of the growth of colon cancer(KM-12) cell line; assay type: functional; conditions: Homo sapiens
RPMI-8226 [5] = test: inhibition of the growth of leukemia (RPMI-8226) cell line; assay type: functional; conditions: Homo sapiens
HCT-116 [6] = test: inhibition of the growth of colon cancer(HCT116) cell line; assay type: functional; conditions: Homo sapiens
OVCAR-8 [7] = test: inhibition of the growth of ovarian cancer(OVCAR-8) cell line; assay type: functional; conditions: Homo sapiens
SF-268 [8] = test: inhibition of the growth of CNS cancer(SF-268) cell line; assay type: functional; conditions: Homo sapiens
Dihydrofolate reductase [9] = biological target: T1, Dihydrofolate reductase (Rattus norvegicus, UniProt Q920D2)
T1 sequence (Q920D2 whole entry): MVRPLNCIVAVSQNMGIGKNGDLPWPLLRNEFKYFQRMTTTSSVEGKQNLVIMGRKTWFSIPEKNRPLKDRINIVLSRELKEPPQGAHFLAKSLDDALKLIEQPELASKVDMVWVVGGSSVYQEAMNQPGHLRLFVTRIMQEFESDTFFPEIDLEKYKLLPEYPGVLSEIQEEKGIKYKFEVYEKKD
Description: Inhibitory activity against dihydrofolate reductase (DHFR) from rat liver

SK-MEL-5 [10] = test: inhibition of the growth of melanoma cancer (SK-MEL-5) cell line; assay type: functional; conditions: Homo sapiens
NCI-H460 [11] = test: Inhibition of the growth of non-small-cell lung cancer (NCI-H460) cell line at 0.01 uM; assay type: functional; conditions: Homo sapiens
NCI-H322M = test: inhibition of the growth of non-small-cell lung cancer (NCI-H322M) cell line; assay type: functional; conditions: Homo sapiens
Dihydrofolate reductase [12] = biological target: T2, Dihydrofolate reductase (Pneumocystis carinii, UniProt P16184)
T2 sequence (P16184 whole entry): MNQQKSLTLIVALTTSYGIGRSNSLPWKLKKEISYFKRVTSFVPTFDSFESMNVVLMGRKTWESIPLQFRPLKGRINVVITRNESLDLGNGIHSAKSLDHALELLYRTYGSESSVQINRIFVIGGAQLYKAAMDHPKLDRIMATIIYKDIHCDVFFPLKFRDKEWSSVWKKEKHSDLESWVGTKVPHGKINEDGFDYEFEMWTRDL
Description: Inhibitory activity against dihydrofolate reductase (DHFR) from Pneumocystis carinii

NCI-H460 [13] = test: inhibition of the growth of non-small-cell lung cancer (NCI-H460) cell line; assay type: functional; conditions: Homo sapiens
MOLT-4 = test: inhibition of the growth of leukemia (MOLT-4) cell line; assay type: functional; conditions: Homo sapiens
SNB-19 [14] = test: inhibition of the growth of CNS cancer(SNB-19) cell line; assay type: functional; conditions: Homo sapiens
UO-31 [15] = test: inhibition of the growth of renal cancer(UO-31) cell line; assay type: functional; conditions: Homo sapiens
SNB-19 [16] = test: Inhibition of the growth of CNS cancer(SNB-19) cell line at 0.01 uM; assay type: functional; conditions: Homo sapiens
MDA-MB-435 [17] = test: Inhibition of the growth of breast cancer (MDA-MB-435) cell line at 0.01 uM; assay type: functional; conditions: Homo sapiens
IGROV-1 [18] = test: inhibition of the growth of ovarian cancer(IGROVI) cell line; assay type: functional; conditions: Homo sapiens
CAKI-1 = test: inhibition of the growth of renal cancer(CAKI-1) cell line; assay type: functional; conditions: Homo sapiens
HCT-15 [19] = test: Inhibition of the growth of colon cancer(HCT-15) cell line at 0.01 uM; assay type: functional; conditions: Homo sapiens
SF-295 [20] = test: inhibition of the growth of CNS cancer(SF-295) cell line; assay type: functional; conditions: Homo sapiens
SK-MEL-5 [21] = test: Inhibition of the growth of melanoma cancer (SK-MEL-5) cell line at 0.01 uM; assay type: functional; conditions: Homo sapiens
RPMI-8226 [22] = test: Inhibition of the growth of leukemia (RPMI-8226) cell line at 0.01 uM; assay type: functional; conditions: Homo sapiens
[23] = biological target: T3, Bifunctional dihydrofolate reductase-thymidylate synthase (Toxoplasma gondii, UniProt Q07422)
T3 sequence (Q07422 whole entry): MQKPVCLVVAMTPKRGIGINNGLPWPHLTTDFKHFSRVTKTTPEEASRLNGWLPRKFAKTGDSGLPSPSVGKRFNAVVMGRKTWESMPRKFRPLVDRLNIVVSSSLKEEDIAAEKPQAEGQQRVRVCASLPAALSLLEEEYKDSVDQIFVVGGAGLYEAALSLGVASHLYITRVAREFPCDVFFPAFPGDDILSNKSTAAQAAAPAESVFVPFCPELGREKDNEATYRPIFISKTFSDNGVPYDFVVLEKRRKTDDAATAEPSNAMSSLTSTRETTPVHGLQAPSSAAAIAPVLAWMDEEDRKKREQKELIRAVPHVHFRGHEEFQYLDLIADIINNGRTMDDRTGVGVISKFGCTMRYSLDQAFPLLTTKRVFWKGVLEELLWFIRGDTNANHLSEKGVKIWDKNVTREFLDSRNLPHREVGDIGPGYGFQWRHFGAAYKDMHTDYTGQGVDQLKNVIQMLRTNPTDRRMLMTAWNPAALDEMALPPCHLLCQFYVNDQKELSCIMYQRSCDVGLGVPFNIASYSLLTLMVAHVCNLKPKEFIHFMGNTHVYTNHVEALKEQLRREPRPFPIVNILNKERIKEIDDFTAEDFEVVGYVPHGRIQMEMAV
Description: Inhibitory activity against dihydrofolate reductase (DHFR) from Toxoplasma gondii

SF-539 = test: inhibition of the growth of CNS cancer(SF-539) cell line; assay type: functional; conditions: Homo sapiens
NCI-H522 = test: inhibition of the growth of non-small-cell lung cancer (NCI-H522) cell line; assay type: functional; conditions: Homo sapiens
MDA-N [24] = test: inhibition of the growth of breast cancer(MDA-N) cell line; assay type: functional; conditions: Homo sapiens
MCF7 = test: inhibition of the growth of breast cancer (MCF-7) cell line; assay type: functional; conditions: Homo sapiens
SF-268 [25] = test: Inhibition of the growth of CNS cancer(SF-268) cell line at 0.01 uM; assay type: functional; conditions: Homo sapiens
DU-145 = test: inhibition of the growth of prostate cancer(DU-145) cell line; assay type: functional; conditions: Homo sapiens
OVCAR-8 [26] = test: Inhibition of the growth of ovarian cancer(OVCAR-8) cell line at 0.01 uM; assay type: functional; conditions: Homo sapiens
MDA-MB-435 [27] = test: inhibition of the growth of breast cancer (MDA-MB-435) cell line; assay type: functional; conditions: Homo sapiens
SF-295 [28] = test: Inhibition of the growth of CNS cancer(SF-295) cell line at 0.01 uM; assay type: functional; conditions: Homo sapiens
SR = test: inhibition of the growth of leukemia(SR) cell line; assay type: functional; conditions: Homo sapiens
NCI/ADR-RES = test: inhibition of the growth of breast cancer (MCF7/ADR-RES) cell line; assay type: functional; conditions: Homo sapiens
A549 [29] = test: Inhibition of the growth of non-small-cell lung cancer (A549/ATCC) cell line at 0.01 uM; assay type: functional; conditions: Homo sapiens
MDA-N [30] = test: Inhibition of the growth of breast cancer(MDA-N) cell line at 0.01 uM; assay type: functional; conditions: Homo sapiens
M14 = test: inhibition of the growth of melanoma cancer (M14) cell line; assay type: functional; conditions: Homo sapiens
A549 [31] = test: inhibition of the growth of non-small-cell lung cancer (A549/ATCC) cell line; assay type: functional; conditions: Homo sapiens
UO-31 [32] = test: inhibition of the growth of renal cancer(UO-31) cell line at 0.01 uM; assay type: functional; conditions: Homo sapiens
HCT-116 [33] = test: Inhibition of the growth of colon cancer(HCT116) cell line at 0.01 uM; assay type: functional; conditions: Homo sapiens

GI50 (NCI-H23 [1]): < 10 nM | GI50 (786-0): 20 nM | GI50 (HCT-15 [2]): < 10 nM | GI50 (RPMI-8226 [5]): < 10 nM | GI50 (HCT-116 [6]): < 10 nM | GI50 (OVCAR-8 [7]): < 10 nM | IC50 (Dihydrofolate reductase [9]): 3.7 nM | GI50 (SK-MEL-5 [10]): < 10 nM | GI50 (NCI-H322M): 11000 nM | IC50 (Dihydrofolate reductase [12]): 21 nM | GI50 (NCI-H460 [13]): < 10 nM | GI50 (MOLT-4): 40 nM | GI50 (NCI-H522): 30 nM | GI50 (MCF7): 40 nM | GI50 (DU-145): 220 nM | GI50 (MDA-MB-435 [27]): < 10 nM | GI50 (A549 [31]): < 10 nM
Compound: COc1cc(N(C)c2ccc3nc(N)nc(N)c3n2)cc(OC)c1OC
inhibition at 0.01 µM (IGROV-1 [3]): 52% | inhibition at 0.01 µM (NCI-H23 [4]): 51% | GI50 (KM12): 40 nM | GI50 (SF-268 [8]): < 10 nM | inhibition at 0.01 µM (NCI-H460 [11]): 79% | GI50 (SNB-19 [14]): < 10 nM | GI50 (UO-31 [15]): < 10 nM | inhibition at 0.01 µM (SNB-19 [16]): 53% | inhibition at 0.01 µM (MDA-MB-435 [17]): 56% | GI50 (IGROV-1 [18]): < 10 nM | GI50 (CAKI-1): 10 nM | inhibition at 0.01 µM (HCT-15 [19]): 57% | GI50 (SF-295 [20]): < 10 nM | inhibition at 0.01 µM (SK-MEL-5 [21]): 60% | inhibition at 0.01 µM (RPMI-8226 [22]): 56% | IC50 [23]: 7.6 nM | GI50 (SF-539): 20 nM | GI50 (MDA-N [24]): < 10 nM | inhibition at 0.01 µM (SF-268 [25]): 61% | inhibition at 0.01 µM (OVCAR-8 [26]): 57% | inhibition at 0.01 µM (SF-295 [28]): 53% | GI50 (SR): 30 nM | GI50 (NCI/ADR-RES): 10 nM | inhibition at 0.01 µM (A549 [29]): 67% | inhibition at 0.01 µM (MDA-N [30]): 58% | GI50 (M14): 20 nM | inhibition at 0.01 µM (UO-31 [32]): 65% | inhibition at 0.01 µM (HCT-116 [33]): 76%
